Data reported in paper PMC6151383 (Molecules : A Journal of Synthetic Chemistry and Natural …, 2017).
Converted amounts (≈) assume the structure as drawn.

Legend:
M. kansasii = test system: M. kansasii; parameters: method as in PMID 22365879; conditions: range over M. kansasii strains; cited from earlier work
[1] = test system: ESBL-positive Klebsiella pneumoniae J 14368/08; parameters: method as in PMID 22365879; conditions: 48 h incubation; cited from earlier work
Candida glabrata 20/I = test system: Candida glabrata 20/I; parameters: method as in PMID 22365879; conditions: 48 h incubation; cited from earlier work
Candida tropicalis 156 = test system: Candida tropicalis 156; parameters: method as in PMID 22365879; conditions: 48 h incubation; cited from earlier work
[2] = test system: Escherichia coli CCM 4517; parameters: method as in PMID 22365879; conditions: 48 h incubation; cited from earlier work
[3] = test system: Trichophyton interdigitale 445; parameters: method as in PMID 22365879; conditions: cited from earlier work
[4] = test system: Lichtheimia corymbifera 272; parameters: method as in PMID 22365879; conditions: 48 h incubation; cited from earlier work
[5] = test system: Trichophyton interdigitale 445; assay: Antifungal microdilution broth MIC, T. interdigitale; type: cell-based; conditions: SI = IC50 (HepG2)/MIC, Trichophyton interdigitale
[6] = test system: Aspergillus fumigatus 231; parameters: method as in PMID 22365879; conditions: 48 h incubation; cited from earlier work
[7] = test system: Mycobacterium avium 330/88; parameters: method as in PMID 22365879; conditions: cited from earlier work
[8] = test system: Mycobacterium tuberculosis 331/88 (H37Rv); parameters: method as in PMID 22365879; conditions: cited from earlier work
[9] = test system: Klebsiella pneumoniae D 11750/08; parameters: method as in PMID 22365879; conditions: 48 h incubation; cited from earlier work
[10] = test system: Enterococcus faecalis J 14365/08; parameters: method as in PMID 22365879; conditions: 48 h incubation; cited from earlier work
[11] = test system: Staphylococcus epidermidis H 6966/08; parameters: method as in PMID 22365879; conditions: 48 h incubation; cited from earlier work
[12] = test system: Staphylococcus aureus CCM 4516/08; parameters: method as in PMID 22365879; conditions: 48 h incubation; cited from earlier work
M. kansasii 6509/96 = test system: M. kansasii 6509/96; parameters: method as in PMID 22365879; conditions: cited from earlier work
[13] = test system: Pseudomonas aeruginosa CCM 1961; parameters: method as in PMID 22365879; conditions: 48 h incubation; cited from earlier work
[14] = test system: Candida albicans ATCC 44859; parameters: method as in PMID 22365879; conditions: 48 h incubation; cited from earlier work
Trichosporon asahii 1188 = test system: Trichosporon asahii 1188; parameters: method as in PMID 22365879; conditions: 48 h incubation; cited from earlier work
[15] = test system: Mycobacterium kansasii 235/80; parameters: method as in PMID 22365879; conditions: cited from earlier work
Candida krusei E28 = test system: Candida krusei E28; parameters: method as in PMID 22365879; conditions: 48 h incubation; cited from earlier work

Structure (SMILES): O=S(=O)(Nc1ncccn1)c1ccc(N=Cc2cc(Cl)ccc2O)cc1 [Compound 2c, 4-[(5-Chloro-2-hydroxybenzylidene)amino]-N-(pyrimidin-2-yl)benzenesulfonamide]
- MIC, M. kansasii strains (M. kansasii): 8 to 32 µM
- MIC KP-E 48 h [1]: >500 µM
- MIC CG 48 h (Candida glabrata 20/I): 125 µM (≈ 48.6 µg/mL)
- MIC CT 48 h (Candida tropicalis 156): >500 µM
- MIC EC 48 h [2]: >500 µM
- MIC TI 72 h ([3]; 72 h incubation): >500 µM
- MIC TI 120 h ([3]; 120 h incubation): >500 µM
- MIC LC 48 h [4]: >500 µM
- SI for TI [5]: inactive
- MIC AF 48 h [6]: >500 µM
- MIC M. avium 330/88 14 d ([7]; 14 d incubation): 125 µM (≈ 48.6 µg/mL)
- MIC M. avium 330/88 21 d ([7]; 21 d incubation): 125 µM (≈ 48.6 µg/mL)
- MIC Mtb. 331/88 14 d ([8]; 14 d incubation): 125 µM (≈ 48.6 µg/mL)
- MIC Mtb. 331/88 21 d ([8]; 21 d incubation): 250 µM (≈ 97.2 µg/mL)
- MIC KP 48 h [9]: >500 µM
- MIC EF 48 h [10]: >500 µM
- MIC SE 48 h [11]: >500 µM
- MIC SA 48 h [12]: 250 µM (≈ 97.2 µg/mL)
- MIC M. kansasii 6509/96 7 d (M. kansasii 6509/96; 7 d incubation): 16 µM (≈ 6.22 µg/mL)
- MIC M. kansasii 6509/96 14 d (M. kansasii 6509/96; 14 d incubation): 32 µM (≈ 12.4 µg/mL)
- MIC M. kansasii 6509/96 21 d (M. kansasii 6509/96; 21 d incubation): 32 µM (≈ 12.4 µg/mL)
- MIC PA 48 h [13]: >500 µM
- MIC CA 48 h [14]: 125 µM (≈ 48.6 µg/mL)
- MIC TA 48 h (Trichosporon asahii 1188): 125 µM (≈ 48.6 µg/mL)
- MIC M. kansasii 235/80 7 d ([15]; 7 d incubation): 8 µM (≈ 3.11 µg/mL)
- MIC M. kansasii 235/80 14 d ([15]; 14 d incubation): 16 µM (≈ 6.22 µg/mL)
- MIC M. kansasii 235/80 21 d ([15]; 21 d incubation): 32 µM (≈ 12.4 µg/mL)
- MIC CK 48 h (Candida krusei E28): >500 µM
